Experimental data reported in the supplement of paper PMC10307832.

Key:
Experiment in all cases: relative viability (nuclei count vs DMSO), 5 days (fraction); higher = more cells survive
NCI-H1792 = tested on: NCI-H1792
Method in brief: (§1)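 Lung cancer cell lines, seeded in 1536-well plates, were treated the following day by pin tool with a single drug or with five library-drug doses (not always all listed) in √10 steps on top of a fixed anchor-drug dose. Cells were fixed and nuclei stained in one step after 5 days, and nuclei were counted. Relative viability is the nuclei count for treated wells divided by that for vehicle wells, reported as medians of duplicate plates.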

NCI-H23 = tested on: NCI-H23
Method in brief: as §1

EKVX = tested on: EKVX
Method in brief: as §1

NCI-H838 = tested on: NCI-H838
Method in brief: as §1

NCI-H358 = tested on: NCI-H358
Method in brief: as §1

A-427 = tested on: A-427
Method in brief: as §1

HCC-15 = tested on: HCC-15
Method in brief: as §1

HCC-827 = tested on: HCC-827
Method in brief: as §1

COR-L 105 = tested on: COR-L 105
Method in brief: as §1

NCI-H1437 = tested on: NCI-H1437
Method in brief: as §1

BEN = tested on: BEN
Method in brief: as §1

201T = tested on: 201T
Method in brief: as §1

NCI-H1666 = tested on: NCI-H1666
Method in brief: as §1

LK-2 = tested on: LK-2
Method in brief: as §1

COR-L23 = tested on: COR-L23
Method in brief: as §1

NCI-H650 = tested on: NCI-H650
Method in brief: as §1

HCC-44 = tested on: HCC-44
Method in brief: as §1

SK-MES-1 = tested on: SK-MES-1
Method in brief: as §1

HARA = tested on: HARA
Method in brief: as §1

NCI-H596 = tested on: NCI-H596
Method in brief: as §1

NCI-H1975 = tested on: NCI-H1975
Method in brief: as §1

In the case of `C=C1C(=O)O[C@@H](CCCCCCCC)[C@@H]1C(=O)O` [C-75] + CS(=O)(=O)CCNCc1ccc(-c2ccc3ncnc(Nc4ccc(OCc5cccc(F)c5)c(Cl)c4)c3c2)o1 [Lapatinib] (partner 2 µM), the relative viability (NCI-H1792; first compound 0.08 µM) is reported as 0.865, the relative viability (NCI-H1792; first compound 0.253 µM) is reported as 0.835 and the relative viability (NCI-H1792; first compound 0.8 µM) is reported as 0.675. The relative viability (NCI-H1792; first compound 2.53 µM) was 0.68, the relative viability (NCI-H1792; first compound 8 µM) was 0.798 and the relative viability (NCI-H23; first compound 0.08 µM) was 1.16. For the same compound, the relative viability (NCI-H23; first compound 0.253 µM) was 1.34, the relative viability (NCI-H23; first compound 0.8 µM) was 0.83 and the relative viability (NCI-H23; first compound 2.53 µM) was 0.851. It also gave a relative viability (NCI-H23; first compound 8 µM) of 0.546, a relative viability (EKVX; first compound 0.08 µM) of 0.266 and a relative viability (EKVX; first compound 0.253 µM) of 0.211. The relative viability (EKVX; first compound 0.8 µM) was 0.224, the relative viability (EKVX; first compound 2.53 µM) was 0.184 and the relative viability (EKVX; first compound 8 µM) was 0.214. The relative viability (NCI-H838; first compound 0.08 µM) was 1.01, the relative viability (NCI-H838; first compound 0.253 µM) was 0.726 and the relative viability (NCI-H838; first compound 0.8 µM) was 0.856. The relative viability (NCI-H838; first compound 2.53 µM) was 0.803, the relative viability (NCI-H838; first compound 8 µM) was 0.876 and the relative viability (NCI-H358; first compound 0.08 µM) was 0.588. The relative viability (NCI-H358; first compound 0.253 µM) was 0.434, the relative viability (NCI-H358; first compound 0.8 µM) was 0.383 and the relative viability (NCI-H358; first compound 2.53 µM) was 0.458. The relative viability (NCI-H358; first compound 8 µM) was 0.599, the relative viability (A-427; first compound 0.08 µM) was 1.01 and the relative viability (A-427; first compound 0.253 µM) was 1.07. It also gave a relative viability (A-427; first compound 0.8 µM) of 1.02, a relative viability (A-427; first compound 2.53 µM) of 0.997 and a relative viability (A-427; first compound 8 µM) of 1.01. It also gave a relative viability (HCC-15; first compound 0.08 µM) of 0.838, a relative viability (HCC-15; first compound 0.253 µM) of 0.808 and a relative viability (HCC-15; first compound 0.8 µM) of 0.878. For the same compound, the relative viability (HCC-15; first compound 2.53 µM) was 0.839, the relative viability (HCC-15; first compound 8 µM) was 0.894 and the relative viability (HCC-827; first compound 0.08 µM) was 0.23. The relative viability (HCC-827; first compound 0.253 µM) was 0.235, the relative viability (HCC-827; first compound 0.8 µM) was 0.212 and the relative viability (HCC-827; first compound 2.53 µM) was 0.191. For the same compound, the relative viability (HCC-827; first compound 8 µM) was 0.205, the relative viability (COR-L 105; first compound 0.08 µM) was 0.299 and the relative viability (COR-L 105; first compound 0.253 µM) was 0.315. For the same compound, the relative viability (COR-L 105; first compound 0.8 µM) was 0.374, the relative viability (COR-L 105; first compound 2.53 µM) was 0.309 and the relative viability (COR-L 105; first compound 8 µM) was 0.414. For the same compound, the relative viability (NCI-H1437; first compound 0.08 µM) was 0.757, the relative viability (NCI-H1437; first compound 0.253 µM) was 0.785 and the relative viability (NCI-H1437; first compound 0.8 µM) was 0.746. For the same compound, the relative viability (NCI-H1437; first compound 2.53 µM) was 0.754, the relative viability (NCI-H1437; first compound 8 µM) was 0.712 and the relative viability (BEN; first compound 0.08 µM) was 0.793. The relative viability (BEN; first compound 0.253 µM) was 0.785, the relative viability (BEN; first compound 0.8 µM) was 0.682 and the relative viability (BEN; first compound 2.53 µM) was 0.645. It also gave a relative viability (BEN; first compound 8 µM) of 0.694, a relative viability (201T; first compound 0.08 µM) of 1 and a relative viability (201T; first compound 0.253 µM) of 1.2. It also gave a relative viability (201T; first compound 0.8 µM) of 0.959, a relative viability (201T; first compound 2.53 µM) of 0.886 and a relative viability (201T; first compound 8 µM) of 1.05. It also gave a relative viability (NCI-H1666; first compound 0.08 µM) of 0.668, a relative viability (NCI-H1666; first compound 0.253 µM) of 0.872 and a relative viability (NCI-H1666; first compound 0.8 µM) of 0.54. It also gave a relative viability (NCI-H1666; first compound 2.53 µM) of 0.549, a relative viability (NCI-H1666; first compound 8 µM) of 0.471 and a relative viability (LK-2; first compound 0.08 µM) of 1.03. The relative viability (LK-2; first compound 0.253 µM) was 1.15, the relative viability (LK-2; first compound 0.8 µM) was 1.08 and the relative viability (LK-2; first compound 2.53 µM) was 0.744. The relative viability (LK-2; first compound 8 µM) was 0.622, the relative viability (COR-L23; first compound 0.08 µM) was 0.868 and the relative viability (COR-L23; first compound 0.253 µM) was 0.94. It also gave a relative viability (COR-L23; first compound 0.8 µM) of 0.919, a relative viability (COR-L23; first compound 2.53 µM) of 0.469 and a relative viability (COR-L23; first compound 8 µM) of 1.01. The relative viability (NCI-H650; first compound 0.08 µM) was 1.02, the relative viability (NCI-H650; first compound 0.253 µM) was 0.86 and the relative viability (NCI-H650; first compound 0.8 µM) was 0.803. For the same compound, the relative viability (NCI-H650; first compound 2.53 µM) was 0.855, the relative viability (NCI-H650; first compound 8 µM) was 0.826 and the relative viability (HCC-44; first compound 0.08 µM) was 0.943. For the same compound, the relative viability (HCC-44; first compound 0.253 µM) was 0.963, the relative viability (HCC-44; first compound 0.8 µM) was 0.943 and the relative viability (HCC-44; first compound 2.53 µM) was 0.946. The relative viability (HCC-44; first compound 8 µM) was 0.962, the relative viability (SK-MES-1; first compound 0.08 µM) was 0.442 and the relative viability (SK-MES-1; first compound 0.253 µM) was 0.441. It also gave a relative viability (SK-MES-1; first compound 0.8 µM) of 0.397, a relative viability (SK-MES-1; first compound 8 µM) of 0.429 and a relative viability (HARA; first compound 0.08 µM) of 0.619. The relative viability (HARA; first compound 0.253 µM) was 0.511, the relative viability (HARA; first compound 0.8 µM) was 0.646 and the relative viability (HARA; first compound 8 µM) was 0.825. It also gave a relative viability (NCI-H596; first compound 0.08 µM) of 1.08, a relative viability (NCI-H596; first compound 0.253 µM) of 1.13 and a relative viability (NCI-H596; first compound 0.8 µM) of 1.07. The relative viability (NCI-H596; first compound 2.53 µM) was 0.87, the relative viability (NCI-H596; first compound 8 µM) was 1.14 and the relative viability (NCI-H1975; first compound 0.08 µM) was 0.839. For the same compound, the relative viability (NCI-H1975; first compound 0.253 µM) was 1.04, the relative viability (NCI-H1975; first compound 0.8 µM) was 0.76 and the relative viability (NCI-H1975; first compound 2.53 µM) was 0.879. It also gave a relative viability (NCI-H1975; first compound 8 µM) of 0.895.
